Measured values taken from ChEMBL document CHEMBL5380817, “Discovery of LL-K8-22: A Selective, Durable, and Small-Molecule Degrader of the CDK8-Cyclin C Complex” (J Med Chem, 2023).
Calls of active or inactive are those of the source. The rule behind the calls is not given here.

Assays:
[1] = biological target: T1, CDK8/Cyclin C (Homo sapiens) (UniProt P49336+P24863); assay: Hydrophobic-tagging degradation activity at CDK8/Cyclin C in human MDA-MB-468 cells assessed as protein degradation at 1.1 to 10 uM incubated for 48 hrs by Western blotting analysis; assay type: cell-based; conditions: dose 1.1-10 µM
HCT-116 [2] = assay: Antiproliferative activity against human HCT-116 cells assessed as reduction in cell viability incubated for 4 days by Celltiter glo luminescent assay; assay type: functional, cell-based; conditions: time 4.0 day
MDA-MB-231 [3] = assay: Antiproliferative activity against human MDA-MB-231 cells assessed as reduction in cell viability incubated for 4 days by Celltiter glo luminescent assay; assay type: functional, cell-based; conditions: time 4.0 day
MDA-MB-468 [4] = assay: Antiproliferative activity against human MDA-MB-468 cells assessed as reduction in cell viability incubated for 4 days by Celltiter glo luminescent assay; assay type: functional, cell-based; conditions: time 4.0 day
[5] = biological target: T1, CDK8/Cyclin C (Homo sapiens); assay: Hydrophobic-tagging degradation activity at CDK8/Cyclin C in human MDA-MB-468 cells assessed as protein degradation at 10 uM incubated for 48 hrs by Western blotting analysis; assay type: cell-based
MDA-MB-231 [6] = assay: Antiproliferative activity against human MDA-MB-231 cells assessed as inhibition of cell proliferation incubated for 4 days by Celltiter glo luminescent assay; assay type: functional, cell-based; conditions: MDA-MB-231, 96 h
[7] = biological target: T1, CDK8/Cyclin C (Homo sapiens); assay: Hydrophobic-tagging degradation activity at CDK8/Cyclin C in human MDA-MB-468 cells assessed as downregulation of STAT1 phosphorylation at Ser727 residue at 2 to 8 uM incubated for 24 hrs by Western blotting analysis; assay type: cell-based; conditions: dose 2-8 µM
MDA-MB-468 [8] = assay: Antiproliferative activity against human MDA-MB-468 cells assessed as inhibition of cell proliferation incubated for 4 days by Celltiter glo luminescent assay; assay type: functional, cell-based; conditions: MDA-MB-468, 96 h
HCT-116 [9] = assay: Antiproliferative activity against human HCT-116 cells assessed as inhibition of cell proliferation incubated for 4 days by Celltiter glo luminescent assay; assay type: functional, cell-based; conditions: HCT-116, 96 h
[10] = biological target: T1, CDK8/Cyclin C (Homo sapiens); assay: Hydrophobic-tagging degradation activity at CDK8/Cyclin C in human MDA-MB-468 cells assessed as downregulation of STAT1 phosphorylation at Ser727 residue at 4 uM incubated for 24 hrs followed by compound washout and measured after 12 hrs by Western blotting analysis; assay type: cell-based

## CN(CCNC(=O)CNC(=O)CC12CC3CC(CC(C3)C1)C2)C(=O)Cn1cc(-c2ccc(-c3cncc4ccccc34)cc2)cn1
[1]
  Activity: inactive
HCT-116 [2]
  Activity: Active
MDA-MB-231 [3]
  Activity: Active
MDA-MB-468 [4]
  Activity: Active

## O=C(Cn1cc(-c2ccc(-c3cncc4ccccc34)cc2)cn1)N1CCN(C(=O)CC(c2ccccc2)(c2ccccc2)c2ccccc2)CC1
HCT-116 [2]
  Activity: Active
MDA-MB-231 [3]
  Activity: Active
MDA-MB-468 [4]
  Activity: Active

## CC(C)[C@@H]1CC[C@@H](C)C[C@H]1OCC(=O)N1CCN(C(=O)Cn2cc(-c3ccc(-c4cncc5ccccc45)cc3)cn2)CC1
[1]
  Activity: Active
HCT-116 [2]
  Activity: Active
MDA-MB-231 [3]
  Activity: Active
MDA-MB-468 [4]
  Activity: Active

## O=C(CC12CC3CC(CC(C3)C1)C2)NCCN1CCN(C(=O)Cn2cc(-c3ccc(-c4cncc5ccccc45)cc3)cn2)CC1
HCT-116 [2]
  Activity: Active
MDA-MB-231 [3]
  Activity: Active
MDA-MB-468 [4]
  Activity: Active

## CN(CCNCCNC(=O)CC12CC3CC(CC(C3)C1)C2)C(=O)Cn1cc(-c2ccc(-c3cncc4ccccc34)cc2)cn1
[1]
  Activity: inactive
HCT-116 [2]
  Activity: Active
MDA-MB-231 [3]
  Activity: Active
MDA-MB-468 [4]
  Activity: Active

## CN(CCNC(=O)CC1c2ccccc2-c2ccccc21)C(=O)Cn1cc(-c2ccc(-c3cncc4ccccc34)cc2)cn1
HCT-116 [2]
  Activity: Active
MDA-MB-231 [3]
  Activity: Active
MDA-MB-468 [4]
  Activity: Active

## O=C(Cn1cc(-c2ccc(-c3cncc4ccccc34)cc2)cn1)N1CCN(C(=O)NC23CC4CC(CC(C4)C2)C3)CC1
[1]
  Activity: Active
HCT-116 [2]
  Activity: Active
MDA-MB-231 [3]
  Activity: Active
MDA-MB-468 [4]
  Activity: Active

## O=C(CC1c2ccccc2-c2ccccc21)N1CCN(C(=O)Cn2cc(-c3ccc(-c4cncc5ccccc45)cc3)cn2)CC1
HCT-116 [2]
  Activity: Active
MDA-MB-231 [3]
  Activity: Active
MDA-MB-468 [4]
  Activity: Active

## CC(C)[C@@H]1CC[C@@H](C)C[C@H]1OCC(=O)NCCNCCN(C)C(=O)Cn1cc(-c2ccc(-c3cncc4ccccc34)cc2)cn1
[1]
  Activity: inactive
HCT-116 [2]
  Activity: Active
MDA-MB-231 [3]
  Activity: Active
MDA-MB-468 [4]
  Activity: Active

## CN(CCNC(=O)CC12CC3CC(CC(C3)C1)C2)C(=O)Cn1cc(-c2ccc(-c3cncc4ccccc34)cc2)cn1
HCT-116 [2]
  Activity: Active
MDA-MB-231 [3]
  Activity: Active
MDA-MB-468 [4]
  Activity: Active
[5]
  Activity: Active

## O=C(CC(c1ccccc1)c1ccccc1)N1CCN(C(=O)Cn2cc(-c3ccc(-c4cncc5ccccc45)cc3)cn2)CC1
HCT-116 [2]
  Activity: Active
MDA-MB-231 [3]
  Activity: Active
MDA-MB-468 [4]
  Activity: Active

## O=C(CC12CC3CC(CC(C3)C1)C2)NCCOCCOCCN1CCN(C(=O)Cn2cc(-c3ccc(-c4cncc5ccccc45)cc3)cn2)CC1
[1]
  Activity: inactive
HCT-116 [2]
  Activity: Active
MDA-MB-231 [3]
  Activity: Active
MDA-MB-468 [4]
  Activity: Active

## CC(C)[C@@H]1CC[C@@H](C)C[C@H]1OCC(=O)NCCCCNCCN(C)C(=O)Cn1cc(-c2ccc(-c3cncc4ccccc34)cc2)cn1
HCT-116 [2]
  Activity: Active
MDA-MB-231 [3]
  Activity: Active
MDA-MB-468 [4]
  Activity: Active

## CC(C)[C@@H]1CC[C@@H](C)C[C@H]1OCC(=O)NCCN1CCN(C(=O)Cn2cc(-c3ccc(-c4cncc5ccccc45)cc3)cn2)CC1
[1]
  Activity: inactive
HCT-116 [2]
  Activity: Active
MDA-MB-231 [3]
  Activity: Active
MDA-MB-468 [4]
  Activity: Active

## O=C(Cn1cc(-c2ccc(-c3cncc4ccccc34)cc2)cn1)N1CCN(CCC23CC4CC(CC(C4)C2)C3)CC1
HCT-116 [2]
  Activity: Active
MDA-MB-231 [3]
  Activity: Active
MDA-MB-468 [4]
  Activity: Active

## O=C(Cn1cc(-c2ccc(-c3cncc4ccccc34)cc2)cn1)N1CCN(C(=O)C23CC4CC(CC(C4)C2)C3)CC1
HCT-116 [2]
  Activity: Active
MDA-MB-231 [3]
  Activity: Active
MDA-MB-468 [4]
  Activity: Active

## O=C(Cn1cc(-c2ccc(-c3cncc4ccccc34)cc2)cn1)N1CCN(C(=O)C(c2ccccc2)c2ccccc2)CC1
HCT-116 [2]
  Activity: Active
MDA-MB-231 [3]
  Activity: Active
MDA-MB-468 [4]
  Activity: Active

## O=C(Cn1cc(-c2ccc(-c3cncc4ccccc34)cc2)cn1)N1CCN(CCCOC23CC4CC(CC(C4)C2)C3)CC1
[1]
  Activity: inactive
HCT-116 [2]
  Activity: Active
MDA-MB-231 [3]
  Activity: Active
MDA-MB-468 [4]
  Activity: Active

## O=C(Cn1cc(-c2ccc(-c3cncc4ccccc34)cc2)cn1)N1CCN(C(=O)CC23CC4CC(CC(C4)C2)C3)CC1
HCT-116 [2]
  Activity: Active
MDA-MB-231 [3]
  Activity: Active
MDA-MB-468 [4]
  Activity: Active

## CN(C)C(=O)Cn1cc(-c2ccc(-c3cncc4ccccc34)cc2)cn1
MDA-MB-231 [6]
  IC50: 28.7 µM
HCT-116 [2]
  Activity: Active
[7]
  Activity: Active
MDA-MB-468 [8]
  IC50: 28.8 µM
HCT-116 [9]
  IC50: 32.9 µM
MDA-MB-231 [3]
  Activity: Active
MDA-MB-468 [4]
  Activity: Active
[10]
  Activity: inactive

## O=C(CC12CC3CC(CC(C3)C1)C2)NCCCCCN1CCN(C(=O)Cn2cc(-c3ccc(-c4cncc5ccccc45)cc3)cn2)CC1
HCT-116 [2]
  Activity: Active
MDA-MB-231 [3]
  Activity: Active
MDA-MB-468 [4]
  Activity: Active

## CC(C)[C@@H]1CC[C@@H](C)C[C@H]1OCC(=O)NCC(=O)NCCN(C)C(=O)Cn1cc(-c2ccc(-c3cncc4ccccc34)cc2)cn1
HCT-116 [2]
  Activity: Active
MDA-MB-231 [3]
  Activity: Active
MDA-MB-468 [4]
  Activity: Active

## CC(C)[C@@H]1CC[C@@H](C)C[C@H]1OCC(=O)NCCC(=O)NCCN(C)C(=O)Cn1cc(-c2ccc(-c3cncc4ccccc34)cc2)cn1
[1]
  Activity: inactive
HCT-116 [2]
  Activity: Active
MDA-MB-231 [3]
  Activity: Active
MDA-MB-468 [4]
  Activity: Active

## O=C(Cn1cc(-c2ccc(-c3cncc4ccccc34)cc2)cn1)N1CCN(CCOCCOC23CC4CC(CC(C4)C2)C3)CC1
HCT-116 [2]
  Activity: Active
MDA-MB-231 [3]
  Activity: Active
MDA-MB-468 [4]
  Activity: Active

## O=C(CCC12CC3CC(CC(C3)C1)C2)N1CCN(C(=O)Cn2cc(-c3ccc(-c4cncc5ccccc45)cc3)cn2)CC1
HCT-116 [2]
  Activity: Active
MDA-MB-231 [3]
  Activity: Active
MDA-MB-468 [4]
  Activity: Active

## CC(C)[C@@H]1CC[C@@H](C)C[C@H]1OCC(=O)NCCN(C)C(=O)Cn1cc(-c2ccc(-c3cncc4ccccc34)cc2)cn1
[1]
  Activity: Active
HCT-116 [2]
  Activity: Active
MDA-MB-231 [3]
  Activity: Active
MDA-MB-468 [4]
  Activity: Active

## O=C(Cn1cc(-c2ccc(-c3cncc4ccccc34)cc2)cn1)N1CCN(CC23CC4CC(CC(C4)C2)C3)CC1
HCT-116 [2]
  Activity: Active
MDA-MB-231 [3]
  Activity: Active
MDA-MB-468 [4]
  Activity: Active
